Experimental data as given in patent US11208412B2 (DAEGU-GYEONGBUK MEDICAL INNOVATION FOUNDATION, priority 2017, dated 2021).

Legend:
Assay in all cases: Kinase selectivity, DiscoverX scanMAX Kinase assay panel (% control)
Type in all cases: binding
[1] = biological target: T1, kinases of the scanMAX Kinase assay panel (Homo sapiens, UniProt P57059); conditions: kinase SIK; 1 uM in DMSO
T1 construct: purchased DiscoverX Co. (contract measurement) scanMAX Kinase assay panel
Method in brief: (§1)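 Compounds tested at 1 uM against the scanMAX kinase panel. Signal expressed as % control = (compound − positive control)/(DMSO negative control − positive control) × 100, where positive control = 0% and DMSO = 100%; below 35% counted as activity on that kinase.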

[2] = biological target: T2, kinases of the scanMAX Kinase assay panel (Homo sapiens, UniProt Q13882); conditions: BRK; 1 uM
T2 construct: purchased DiscoverX Co. (contract measurement) scanMAX Kinase assay panel
Method in brief: as §1

[3] = biological target: T3, kinases of the scanMAX Kinase assay panel (Homo sapiens, UniProt P11362); conditions: FGFR1; 1 uM
T3 construct: purchased DiscoverX Co. (contract measurement) scanMAX Kinase assay panel
Method in brief: as §1

[4] = biological target: T4, kinases of the scanMAX Kinase assay panel (Homo sapiens, UniProt P43403); conditions: kinase ZAP70; 1 uM in DMSO
T4 construct: purchased DiscoverX Co. (contract measurement) scanMAX Kinase assay panel
T4 sequence (P43403 1-619): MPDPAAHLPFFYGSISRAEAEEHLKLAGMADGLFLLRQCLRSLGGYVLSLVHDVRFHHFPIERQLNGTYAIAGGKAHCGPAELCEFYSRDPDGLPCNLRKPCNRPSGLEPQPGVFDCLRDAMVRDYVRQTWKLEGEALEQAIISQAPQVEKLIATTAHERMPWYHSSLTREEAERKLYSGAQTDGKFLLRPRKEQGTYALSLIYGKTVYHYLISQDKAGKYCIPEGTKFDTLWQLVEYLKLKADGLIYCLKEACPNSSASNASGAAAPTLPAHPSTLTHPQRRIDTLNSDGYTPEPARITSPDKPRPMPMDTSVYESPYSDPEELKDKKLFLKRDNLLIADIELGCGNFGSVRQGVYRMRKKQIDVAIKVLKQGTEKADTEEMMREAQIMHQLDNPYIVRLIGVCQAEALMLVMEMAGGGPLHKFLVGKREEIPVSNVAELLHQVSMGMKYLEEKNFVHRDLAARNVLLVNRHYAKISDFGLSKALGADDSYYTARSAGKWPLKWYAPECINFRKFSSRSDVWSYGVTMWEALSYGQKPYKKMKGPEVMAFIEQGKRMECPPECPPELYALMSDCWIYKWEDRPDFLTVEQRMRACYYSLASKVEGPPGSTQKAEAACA
Method in brief: as §1

[5] = biological target: T5, kinases of the scanMAX Kinase assay panel (Plasmodium falciparum, UniProt P62344); conditions: PFCDPK1(P. falciparum); 1 uM
T5 construct: purchased DiscoverX Co. (contract measurement) scanMAX Kinase assay panel
Method in brief: as §1

[6] = biological target: T6, kinases of the scanMAX Kinase assay panel (Homo sapiens, UniProt Q8WXR4); conditions: MYO3B; 1 uM
T6 construct: purchased DiscoverX Co. (contract measurement) scanMAX Kinase assay panel
T6 sequence (Q8WXR4 1-1341): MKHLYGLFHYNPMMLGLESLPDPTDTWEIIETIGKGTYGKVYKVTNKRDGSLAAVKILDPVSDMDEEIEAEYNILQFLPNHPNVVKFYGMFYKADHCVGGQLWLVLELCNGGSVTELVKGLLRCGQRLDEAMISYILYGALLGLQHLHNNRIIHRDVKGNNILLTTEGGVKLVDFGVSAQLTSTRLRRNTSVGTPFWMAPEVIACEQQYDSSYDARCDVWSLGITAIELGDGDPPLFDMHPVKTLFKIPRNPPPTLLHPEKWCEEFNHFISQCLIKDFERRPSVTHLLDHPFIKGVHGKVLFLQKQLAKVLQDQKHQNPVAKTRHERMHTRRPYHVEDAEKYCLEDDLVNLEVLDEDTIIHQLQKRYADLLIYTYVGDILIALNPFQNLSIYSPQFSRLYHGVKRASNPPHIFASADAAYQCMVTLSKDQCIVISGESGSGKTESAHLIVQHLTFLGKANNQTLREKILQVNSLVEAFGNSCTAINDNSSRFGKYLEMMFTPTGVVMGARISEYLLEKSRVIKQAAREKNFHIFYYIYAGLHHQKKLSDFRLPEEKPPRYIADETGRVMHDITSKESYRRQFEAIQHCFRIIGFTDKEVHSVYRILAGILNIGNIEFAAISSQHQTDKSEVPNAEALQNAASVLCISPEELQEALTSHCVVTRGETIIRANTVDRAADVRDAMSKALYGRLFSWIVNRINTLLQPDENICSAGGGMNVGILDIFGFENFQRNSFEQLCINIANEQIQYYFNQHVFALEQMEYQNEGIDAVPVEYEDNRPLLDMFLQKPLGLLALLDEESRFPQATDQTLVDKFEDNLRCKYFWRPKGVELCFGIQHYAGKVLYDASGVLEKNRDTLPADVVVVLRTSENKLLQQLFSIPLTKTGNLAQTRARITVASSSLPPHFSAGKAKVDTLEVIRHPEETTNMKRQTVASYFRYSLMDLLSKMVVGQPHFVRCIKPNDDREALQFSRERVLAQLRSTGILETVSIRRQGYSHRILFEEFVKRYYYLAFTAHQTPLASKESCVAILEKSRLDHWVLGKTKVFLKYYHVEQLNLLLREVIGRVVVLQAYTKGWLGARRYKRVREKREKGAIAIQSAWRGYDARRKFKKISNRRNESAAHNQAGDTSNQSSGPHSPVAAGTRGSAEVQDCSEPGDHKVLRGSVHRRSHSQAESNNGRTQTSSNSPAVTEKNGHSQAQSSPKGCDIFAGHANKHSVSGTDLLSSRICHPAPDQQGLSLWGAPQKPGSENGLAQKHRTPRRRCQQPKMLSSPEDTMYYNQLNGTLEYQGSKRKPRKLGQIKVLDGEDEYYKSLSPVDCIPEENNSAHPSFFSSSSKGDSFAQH
Method in brief: as §1

[7] = biological target: T7, kinases of the scanMAX Kinase assay panel (Homo sapiens, UniProt Q00532); conditions: CDKL1; 1 uM
T7 construct: purchased DiscoverX Co. (contract measurement) scanMAX Kinase assay panel
Method in brief: as §1

[8] = biological target: T8, kinases of the scanMAX Kinase assay panel (Homo sapiens, UniProt Q9Y3S1); conditions: kinase WNK2; 1 uM in DMSO
T8 construct: purchased DiscoverX Co. (contract measurement) scanMAX Kinase assay panel
Method in brief: as §1

[9] = biological target: T9, kinases of the scanMAX Kinase assay panel (Homo sapiens, UniProt Q16512); conditions: PKN1; 1 uM
T9 construct: purchased DiscoverX Co. (contract measurement) scanMAX Kinase assay panel
Method in brief: as §1

T8 sequence (Q9Y3S1 whole entry): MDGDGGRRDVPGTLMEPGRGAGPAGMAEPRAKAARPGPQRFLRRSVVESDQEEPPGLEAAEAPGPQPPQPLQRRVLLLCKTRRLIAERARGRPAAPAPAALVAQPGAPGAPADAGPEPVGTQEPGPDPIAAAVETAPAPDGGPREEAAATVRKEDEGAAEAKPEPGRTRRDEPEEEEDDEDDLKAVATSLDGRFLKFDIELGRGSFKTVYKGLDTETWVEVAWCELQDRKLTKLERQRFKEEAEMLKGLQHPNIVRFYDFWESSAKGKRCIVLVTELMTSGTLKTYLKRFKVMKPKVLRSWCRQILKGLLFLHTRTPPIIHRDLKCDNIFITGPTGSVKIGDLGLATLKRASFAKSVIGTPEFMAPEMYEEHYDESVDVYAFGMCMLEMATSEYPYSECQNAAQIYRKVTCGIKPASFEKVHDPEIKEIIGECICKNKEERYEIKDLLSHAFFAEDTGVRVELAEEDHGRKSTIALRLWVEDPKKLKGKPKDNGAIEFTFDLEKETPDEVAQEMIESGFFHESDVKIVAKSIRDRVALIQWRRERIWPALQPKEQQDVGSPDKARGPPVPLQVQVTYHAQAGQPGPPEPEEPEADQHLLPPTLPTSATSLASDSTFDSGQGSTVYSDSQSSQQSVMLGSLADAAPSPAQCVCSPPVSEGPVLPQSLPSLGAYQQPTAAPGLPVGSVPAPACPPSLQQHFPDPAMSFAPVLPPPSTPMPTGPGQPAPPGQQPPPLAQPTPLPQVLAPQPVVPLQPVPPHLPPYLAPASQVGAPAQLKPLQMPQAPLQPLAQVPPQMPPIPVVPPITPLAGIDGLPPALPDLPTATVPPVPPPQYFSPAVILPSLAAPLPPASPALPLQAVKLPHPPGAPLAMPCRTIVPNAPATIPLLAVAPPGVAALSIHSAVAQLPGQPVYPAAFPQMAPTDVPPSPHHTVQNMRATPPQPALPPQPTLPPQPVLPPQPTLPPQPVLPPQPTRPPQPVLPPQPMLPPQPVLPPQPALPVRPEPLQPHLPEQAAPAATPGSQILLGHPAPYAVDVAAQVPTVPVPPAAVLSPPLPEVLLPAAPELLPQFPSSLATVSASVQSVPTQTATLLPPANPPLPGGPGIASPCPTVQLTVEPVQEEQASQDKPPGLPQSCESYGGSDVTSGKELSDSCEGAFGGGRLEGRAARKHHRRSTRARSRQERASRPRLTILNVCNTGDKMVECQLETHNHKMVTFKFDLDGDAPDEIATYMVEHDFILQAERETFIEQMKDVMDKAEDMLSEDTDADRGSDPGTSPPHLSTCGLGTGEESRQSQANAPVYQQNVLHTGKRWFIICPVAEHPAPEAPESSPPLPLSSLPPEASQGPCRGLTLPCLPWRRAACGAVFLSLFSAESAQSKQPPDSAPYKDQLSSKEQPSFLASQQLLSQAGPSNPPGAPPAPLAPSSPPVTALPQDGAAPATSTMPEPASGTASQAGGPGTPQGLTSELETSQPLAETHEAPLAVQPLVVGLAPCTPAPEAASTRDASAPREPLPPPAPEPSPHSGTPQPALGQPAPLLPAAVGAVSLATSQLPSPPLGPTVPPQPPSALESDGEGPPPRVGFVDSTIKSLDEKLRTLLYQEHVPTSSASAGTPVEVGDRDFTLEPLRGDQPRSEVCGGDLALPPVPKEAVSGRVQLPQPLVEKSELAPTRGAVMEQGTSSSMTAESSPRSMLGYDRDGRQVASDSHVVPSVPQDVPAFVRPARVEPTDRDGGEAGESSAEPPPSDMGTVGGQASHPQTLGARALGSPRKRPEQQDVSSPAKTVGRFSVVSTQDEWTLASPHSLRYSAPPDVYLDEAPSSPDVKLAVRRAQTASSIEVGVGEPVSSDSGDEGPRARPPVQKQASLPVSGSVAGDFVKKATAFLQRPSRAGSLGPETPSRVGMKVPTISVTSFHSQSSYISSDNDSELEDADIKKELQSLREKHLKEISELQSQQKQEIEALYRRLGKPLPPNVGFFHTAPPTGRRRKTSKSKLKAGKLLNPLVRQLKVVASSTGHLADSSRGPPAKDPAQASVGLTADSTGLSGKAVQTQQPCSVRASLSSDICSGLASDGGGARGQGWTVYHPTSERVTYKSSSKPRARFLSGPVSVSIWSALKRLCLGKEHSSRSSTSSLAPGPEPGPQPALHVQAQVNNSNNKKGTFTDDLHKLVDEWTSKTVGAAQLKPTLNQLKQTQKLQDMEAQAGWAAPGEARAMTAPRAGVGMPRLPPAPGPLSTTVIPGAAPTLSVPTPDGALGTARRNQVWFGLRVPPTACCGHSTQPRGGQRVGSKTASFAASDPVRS
T1 sequence (P57059 whole entry): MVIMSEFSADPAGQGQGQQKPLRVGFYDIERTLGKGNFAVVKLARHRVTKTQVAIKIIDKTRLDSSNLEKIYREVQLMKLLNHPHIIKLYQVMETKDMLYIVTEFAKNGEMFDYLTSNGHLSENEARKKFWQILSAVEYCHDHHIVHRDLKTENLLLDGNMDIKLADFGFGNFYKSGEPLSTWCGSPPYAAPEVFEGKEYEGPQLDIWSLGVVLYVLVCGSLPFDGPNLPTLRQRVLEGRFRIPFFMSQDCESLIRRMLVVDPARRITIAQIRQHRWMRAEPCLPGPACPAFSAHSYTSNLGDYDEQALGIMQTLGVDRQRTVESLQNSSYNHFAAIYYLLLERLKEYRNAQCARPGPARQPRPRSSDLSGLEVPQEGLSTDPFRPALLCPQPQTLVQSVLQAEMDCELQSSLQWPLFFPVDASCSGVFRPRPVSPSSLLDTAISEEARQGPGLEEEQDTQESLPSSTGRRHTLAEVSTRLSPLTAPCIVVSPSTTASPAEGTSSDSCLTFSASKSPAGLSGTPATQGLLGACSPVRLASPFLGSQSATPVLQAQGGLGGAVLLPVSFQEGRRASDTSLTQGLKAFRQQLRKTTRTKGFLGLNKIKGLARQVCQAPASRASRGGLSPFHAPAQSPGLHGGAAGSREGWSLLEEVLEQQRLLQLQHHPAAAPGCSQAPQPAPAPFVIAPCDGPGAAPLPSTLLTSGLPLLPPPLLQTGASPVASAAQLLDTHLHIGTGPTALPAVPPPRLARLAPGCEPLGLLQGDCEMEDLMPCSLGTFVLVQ
T5 sequence (P62344 whole entry): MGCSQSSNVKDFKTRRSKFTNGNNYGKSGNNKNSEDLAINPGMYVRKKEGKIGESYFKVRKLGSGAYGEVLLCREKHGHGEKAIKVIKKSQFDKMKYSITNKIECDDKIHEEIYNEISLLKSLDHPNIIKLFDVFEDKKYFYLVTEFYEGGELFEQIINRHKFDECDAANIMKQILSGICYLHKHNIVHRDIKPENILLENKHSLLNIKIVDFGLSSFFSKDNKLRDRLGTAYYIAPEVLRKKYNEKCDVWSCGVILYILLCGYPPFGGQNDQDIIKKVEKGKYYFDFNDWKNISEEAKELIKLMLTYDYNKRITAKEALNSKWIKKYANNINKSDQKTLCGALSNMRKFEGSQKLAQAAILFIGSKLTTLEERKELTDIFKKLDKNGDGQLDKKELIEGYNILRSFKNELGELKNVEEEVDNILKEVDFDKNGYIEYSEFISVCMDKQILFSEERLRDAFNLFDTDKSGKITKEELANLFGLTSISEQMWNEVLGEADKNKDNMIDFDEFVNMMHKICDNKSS
T2 sequence (Q13882 whole entry): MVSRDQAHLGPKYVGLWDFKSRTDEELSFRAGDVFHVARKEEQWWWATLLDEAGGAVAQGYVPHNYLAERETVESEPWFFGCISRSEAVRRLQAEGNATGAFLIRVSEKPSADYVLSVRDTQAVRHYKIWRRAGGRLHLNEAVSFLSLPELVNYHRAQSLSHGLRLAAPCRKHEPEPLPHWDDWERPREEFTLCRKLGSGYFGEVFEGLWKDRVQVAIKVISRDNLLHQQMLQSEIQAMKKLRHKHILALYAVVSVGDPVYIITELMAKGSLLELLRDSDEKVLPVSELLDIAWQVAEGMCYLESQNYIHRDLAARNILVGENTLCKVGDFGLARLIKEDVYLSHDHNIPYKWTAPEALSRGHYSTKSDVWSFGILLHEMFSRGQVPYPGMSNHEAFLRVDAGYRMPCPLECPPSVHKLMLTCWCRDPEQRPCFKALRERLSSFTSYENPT
T3 sequence (P11362 22-822): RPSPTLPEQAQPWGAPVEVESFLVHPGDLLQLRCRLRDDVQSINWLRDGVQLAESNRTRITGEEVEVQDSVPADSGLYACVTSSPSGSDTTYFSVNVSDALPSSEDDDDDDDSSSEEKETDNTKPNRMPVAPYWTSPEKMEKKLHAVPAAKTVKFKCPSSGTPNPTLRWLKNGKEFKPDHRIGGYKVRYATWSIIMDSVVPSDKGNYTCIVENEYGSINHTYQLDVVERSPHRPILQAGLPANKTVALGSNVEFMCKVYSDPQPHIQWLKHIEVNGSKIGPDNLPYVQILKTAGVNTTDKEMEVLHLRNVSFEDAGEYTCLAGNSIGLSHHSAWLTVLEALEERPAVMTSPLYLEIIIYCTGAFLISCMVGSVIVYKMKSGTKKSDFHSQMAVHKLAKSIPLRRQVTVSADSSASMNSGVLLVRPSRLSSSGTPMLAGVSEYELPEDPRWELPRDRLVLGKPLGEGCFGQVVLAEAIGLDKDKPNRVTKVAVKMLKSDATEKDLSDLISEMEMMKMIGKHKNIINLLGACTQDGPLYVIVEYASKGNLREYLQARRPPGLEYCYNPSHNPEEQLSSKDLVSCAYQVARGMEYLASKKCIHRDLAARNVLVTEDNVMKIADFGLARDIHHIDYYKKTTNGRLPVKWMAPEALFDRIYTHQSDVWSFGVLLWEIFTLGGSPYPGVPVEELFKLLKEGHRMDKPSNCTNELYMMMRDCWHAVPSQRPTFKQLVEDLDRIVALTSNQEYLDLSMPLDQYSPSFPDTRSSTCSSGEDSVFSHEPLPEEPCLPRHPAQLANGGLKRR

SMILES	remaining binding at 1 µM [1] [%]	remaining binding at 1 µM [2] [%]	remaining binding at 1 µM [3] [%]	remaining binding at 1 µM [4] [%]	remaining binding at 1 µM [5] [%]	remaining binding at 1 µM [6] [%]	remaining binding at 1 µM [7] [%]	remaining binding at 1 µM [8] [%]	remaining binding at 1 µM [9] [%]
CCNc1nc(Nc2ccc(C(=O)N3CCC(N4CCOCC4)CC3)cc2OC)nc2[nH]cc(C(F)(F)F)c12 [Example 104, (4-((4-(ethylamino)-5-(trifluoromethyl)-7H-pyrrolo[2,3-d]pyrimidine-2-yl)amino)-3-methoxyphenyl)(4-morpholinopiperidine-1-yl)methanone]	100	64	100	100	100	19	88	100	95
CNc1nc(Nc2ccc(C(=O)N3CCOCC3)cc2OC)nc2[nH]cc(C#N)c12 [Example 1, 2-((2-methoxy-4-(morpholine-4-carbonyl)phenyl)amino)-4-(methylamino)-7H-pyrrolo[2,3-d]pyrimidine-5-carbonitrile]	97	93	97	35	87	84	89	52	100
CC1(Nc2nc(Nc3cnn([C@H]4CCN(C5COC5)C[C@@H]4F)c3Cl)nc3[nH]cc(C#N)c23)CC1 [Example 52, 2-((5-chloro-1-((3S,4S)-3-fluoro-1-(oxetane-3-yl)piperidine-4-yl)-1H-pyrazole-4-yl)amino)((1-methylcyclopropyl)amino)-7H-pyrrolo[2,3-d]pyrimidine-5-carbonitrile]	78	24	42	2.2	52	10	46	56	67
